Laboratory results: patent US20050014743A1, “Combination of an NMDA receptor antagonist and a selective serotonin reuptake inhibitor for the treatment of depression and other mood disorders” (Forest Laboratories, Inc., priority 2003, published 2005)
“Also recorded” adds a separate entry of the source.

Tests used:
[1] = tested on: 5-HT3 receptor; details: cited from earlier work; for inhibition of 5HT3-mediated current: memantine: native N1E-115 and heterologous HEK-293 cells
[2] = tested on: C57/B1 mice; assay: locomotor activity test (actometers, 6 min); assay type: in vivo, mouse
[3] = tested on: C57/B1 mice; assay: mouse tail suspension test (TST); assay type: in vivo; details: for immobility: given with vehicle; for duration of immobility: monotherapy, doses 5-20 mg/kg IP
[4] = molecular target: T1, NMDA receptor (Rattus norvegicus, UniProt P35439); details: rat hippocampal slices; cited from earlier work
T1 construct: NMDA receptor-mediated currents (in rat hippocampal slices); from tissue; host or cells: rat hippocampal slices

SMILES: CC1(C)CC(C)(C)CC(C)(N)C1 [NER, 1-amino-1,3,3,5,5-pentamethylcyclohexane]
- inhibition of 5HT3-mediated current [1]: inhibit
- locomotor activity ([2]; given with vehicle (combination study), 20 mg/kg IP): increased locomotor activity
- locomotor activity ([2]; monotherapy, doses 5-20 mg/kg IP): increased locomotor activity; also recorded: consistent locomotor stimulation
- immobility ([3]; 2.5 mg/kg IP, 2.5 mg/kg): increased immobility; also recorded: without effect on immobility time
- immobility ([3]; 20 mg/kg IP, 20 mg/kg): decreased immobility
- duration of immobility [3]: decreased the duration of immobility

SMILES: CNCCC(Oc1ccc(C(F)(F)F)cc1)c1ccccc1 (stereo not shown) [FLU, fluoxetine]
- locomotor activity ([2]; mouse, in vivo): did not change locomotor activity; also recorded: generally did not affect locomotor activity
- immobility ([3]; 20 mg/kg IP): decreased immobility
- duration of immobility [3]: decrease in the duration of immobility

SMILES: CN(C)CCCN1c2ccccc2CCc2ccccc21 [IMI, imipramine]
- locomotor activity ([2]; mouse, in vivo): decreased it; also recorded: decreased locomotor activity
- locomotor activity ([2]; mouse, in vivo, ip, 20 mg/kg): decreased locomotor activity
- immobility ([3]; 20 mg/kg IP): decreased immobility
- duration of immobility [3]: decrease in the duration of immobility

SMILES: COc1ccc(C(CN(C)C)C2(O)CCCCC2)cc1 (stereo not shown) [VEN, venlafaxine]
- locomotor activity ([2]; given with vehicle (combination study), 20 mg/kg IP, 20 mg/kg): increased locomotor activity; also recorded: also observed for the dose of 20 mg/kg in one of two studies
- locomotor activity ([2]; given with vehicle, 5 mg/kg IP, 5 mg/kg): without effect
- locomotor activity ([2]; monotherapy, 40 mg/kg IP, 40 mg/kg): increased it; also recorded: stimulated locomotion
- immobility ([3]; 5 mg/kg IP): decreased immobility
- immobility ([3]; 20 mg/kg IP): decreased immobility
- duration of immobility [3]: decrease in the duration of immobility

SMILES: CC12CC3CC(C)(C1)CC(N)(C3)C2 [memantine, 1-amino-3,5-dimethyl adamantane]
- affinity for 5HT3-mediated current relative to NMDA receptor-mediated currents ([1]; N1E-115 / HEK-293 cells vs rat hippocampal slices): approximately equal affinity
- inhibition of 5HT3-mediated current [1]: inhibit
- inhibition of NMDA receptor-mediated currents [4]: inhibit
